Results on ten compounds are retold here after patent publication US20260226103A1, “MODIFIED AMINO ACIDS AND USES THEREOF” (priority 2022, published 2026).

The subject of data set [1] is HeLa cells. In words: Cell uptake of FITC-peptides by flow cytometry. The settings on record: for time of maximum uptake: 37° C., 1 hr vs 4 hr. The data set is classed as cell-based. For orientation: A flow cytometer gives signals particle by particle.
Procedure: (§2) HeLa and U2OS cells were maintained in medium consisting of Dulbecco's modified Eagle's medium (DMEM), 10% FBS, 1% L-Glutamine and 1% penicillin/streptomycin at pH 7.4. […] Cells were cultured in a humidified incubator at 37° C. with 5% CO2 atmosphere.
HeLa or U2OS cells were cultured in 24 well plates (4.5×10^5 cells per well) for 24 h. On the day of the experiment, the cells were incubated with 5 μM FITC-peptide in DMEM with 10% FBS at 37° C. or 4° C. for required time. The media was then removed and wells were washed with PBS (2×500 μL per well) and then detached from the plate with TrypLE Xpress (500 μL per well). PBS containing 2% bovine serum albumin (500 μL) was added to each well and cells transferred to 5 mL polystyrene FACS tubes. Cells were centrifuged (5 min, 5000 rpm) and washed with PBS containing 2% bovine serum albumin (2×500 μL) before being suspended in PBS containing 2% bovine serum albumin (1.00 mL per FACS tube).
(§3) Cells were finally analysed on a Thermo fisher Attune NxT flow cytometer with laser excitation/emission set at 490 nm/519 nm and a flow rate of 200 μL min^−1. Flow cytometry data was analysed using FlowJo software with gating set at a range of 51K-285K side scatter and 251K-815K for forward scatter variance for every sample. Median fluorescence intensity values were calculated from the gating range using FlowJo.
(§4) Median fluorescence values reported were normalised by subtracting average background fluorescence at 490 nm/519 nm of a set of untreated cells (ran with every experiment) from the value of each FITC labelled peptide.
The subject of data set [2] is HeLa cells. Put plainly: Cell viability AlamarBlue assay. As to conditions: for cytotoxicity / tolerability (in words): HeLa cells, at or up to 100 μM. Type of data set: cell-based. As to the method: (§1) HeLa, U2OS or HepG2 cells were cultured in 96 well plates (2.6×10^3 cells per well) for 24 h. […] The experiments were performed in triplicate for each concentration. AlamarBlue® was then added to each well (0.5 mM, 10 μL, 10% v/v) and incubated for a further 6 h for HeLa and HepG2 cells and 24 h for U2OS cells. Cells were then analysed using a HIdex plate reader with laser excitation/emission set at 560 nm/595 nm. Fluorescence of untreated cells were used as a 100% viable control, with 1% Triton X used as a negative control, and viability of cells were calculated as a percentage of the control fluorescence values using OriginPro 2019b software.
On the technique in general: The colour change of resazurin is a common sign of viable cells or microbes.

Data set [3] has as its system HeLa cells. Put plainly: Cellular distribution by confocal microscopy. Type of data set: cell-based. The settings on record: 5 μM fluorescein-tagged CPP, 4 h. The procedure:
HeLa cells were cultured in 8 well plates (Ibidi plates) (3.5×10^4 cells per well) for 24 h. […] After 3.5 h incubation, Hoescht 33258 was added at a concentration of 5.6 μM and cells incubated at 37° C. for the final 0.5 h. Cells were removed from the incubator and media removed. Each well was then washed with serum and phenol red free media (2×200 μL) then incubated with 4% formaldehyde in PBS (200 μL) for 20 min at room temperature. After incubation the 4% formaldehyde solution was removed and PBS (200 μL) added to each well. The cells were then imaged using a Leica S8 confocal microscope. Excitation/emission was set at 352 nm/461 nm for Hoescht 33258 imaging and 495 nm/519 nm for FITC labelled peptides. Images were processed using ImageJ software. Images were ‘rolling ball’ averaged across the set for each channel to remove background fluorescence.

The conditions of data set [4]: pH of 7.4; cited from earlier work.
Data set [5] is described as follows: Cell viability AlamarBlue assay. Type of data set: cell-based. As to conditions: human, HeLa cells, 24 h. As to the method:
as §1

Data set [6] deals with U2OS cells. As to conditions: U2OS cell line.
Procedure: as §2
HeLa or U2OS cells were cultured in 24 well plates (4.5×10^5 cells per well) for 24 h. On the day of the experiment, the cells were incubated with 5 μM FITC-peptide in DMEM with 10% FBS at 37° C. or 4° C. for required time. The media was then removed and wells were washed with PBS (2×500 μL per well) and then detached from the plate with TrypLE Xpress (500 μL per well). PBS containing 2% bovine serum albumin (500 μL) was added to each well and cells transferred to 5 mL polystyrene FACS tubes. […]
as §3, §4

The structures appear in SMILES notation. Square brackets hold non-standard residues; d marks the D form. Peptide text beside a SMILES is read from it. * marks the point of attachment. X1 = O=C(O)c1cc(NC(=S)*)ccc1-c1c2ccc(=O)cc-2oc2cc(O)ccc12; aIle = CC[C@@H](C)[C@H](N)C(=O)O; dCit = NC(=O)NCCC[C@@H](N)C(=O)O; X2 = N=C(N)c1ccc(C(=O)*)cc1; Dap = NC[C@H](N)C(=O)O; Ahx = NCCCCCC(=O)O; βAla = NCCC(=O)O

As to `CC[C@@H](C)[C@H](NC(=O)[C@H](CC(C)C)NC(=O)[C@@H]1CCCN1C(=O)CCCCCNC(=S)Nc1ccc(-c2c3ccc(=O)cc-3oc3cc(O)ccc23)c(C(=O)O)c1)C(=O)N[C@@H](Cc1ccc(O)cc1)C(=O)N[C@@H](CC(C)C)C(=O)N[C@H](CCCCN)C(=O)N[C@@H](CC(C)C)C(=O)N[C@@H](CC(C)C)C(=O)N[C@H](CCCCN)C(=O)NCC(N)=O` [TP-3, FITC-XPLIYLKLLKG] ({X1-Ahx}-PL[aIle]YL[dK]LL[dK]G-NH2), in data set [1] (5 μM FITC-peptide), the “cell uptake relative to TP-2 (in words)” value is “no difference in cell uptake”.

Turning to `CC[C@@H](C)[C@H](NC(=O)[C@H](CC(C)C)NC(=O)[C@@H]1CCCN1C(=O)CCCCCNC(=S)Nc1ccc(-c2c3ccc(=O)cc-3oc3cc(O)ccc23)c(C(=O)O)c1)C(=O)N[C@@H](Cc1ccc(O)cc1)C(=O)N[C@@H](CC(C)C)C(=O)N[C@@H](CCCNC(=N)N)C(=O)N[C@@H](CC(C)C)C(=O)N[C@@H](CC(C)C)C(=O)N[C@@H](CCCNC(=N)N)C(=O)NCC(N)=O` [TP-2, FITC-XPLIYLRLLRG] ({X1-Ahx}-PL[aIle]YLRLLRG-NH2), the “cytotoxicity / tolerability (in words)” value in data set [2] is “well tolerated”. For the same compound, the “cellular distribution profile (in words)” value in data set [3] was “extensively distributed throughout the cytoplasm”.

`N=C(N)NCCC[C@H](NC(=O)[C@H](CCCNC(=N)N)NC(=O)[C@H](CCCNC(=N)N)NC(=O)[C@H](CCC(N)=O)NC(=O)[C@H](CCCNC(=N)N)NC(=O)[C@H](CCCNC(=N)N)NC(=O)[C@H](CCCCN)NC(=O)[C@H](CCCCN)NC(=O)[C@H](CCCNC(=N)N)NC(=O)CCCCCNC(=S)Nc1ccc(-c2c3ccc(=O)cc-3oc3cc(O)ccc23)c(C(=O)O)c1)C(N)=O` [Tat, FITC-XRKKRRQRRR]: the “cytotoxicity / tolerability (in words)” value in data set [2] is “moderate levels of toxicity”. Besides, the “time of maximum uptake” value in data set [1] (5 μM FITC-peptide) was 1 h. In data set [3], the “cellular distribution profile (in words)” value is listed as “accumulating in puncta”.

With `CC[C@@H](C)[C@H](NC(=O)[C@H](CC(C)C)NC(=O)[C@@H]1CCCN1C(=O)CCCCCNC(=S)Nc1ccc(-c2c3ccc(=O)cc-3oc3cc(O)ccc23)c(C(=O)O)c1)C(=O)N[C@@H](CC(C)C)C(=O)N[C@@H](CC(C)C)C(=O)N[C@@H](CCCNC(=N)N)C(=O)N[C@@H](CC(C)C)C(=O)N[C@@H](CC(C)C)C(=O)N[C@@H](CCCNC(=N)N)C(=O)NCC(N)=O` [TP-1, FITC-XPLILLRLLRG] ({X1-Ahx}-PL[aIle]LLRLLRG-NH2), the “cytotoxicity / tolerability (in words)” value in data set [2] was “well tolerated”. In data set [3], the “cellular distribution profile (in words)” value is recorded as “extensively distributed throughout the cytoplasm”.

On to `CC[C@@H](C)[C@H](NC(=O)[C@H](CC(C)C)NC(=O)[C@@H]1CCCN1C(=O)CCCCCNC(=S)Nc1ccc(-c2c3ccc(=O)cc-3oc3cc(O)ccc23)c(C(=O)O)c1)C(=O)N[C@@H](Cc1ccc(O)cc1)C(=O)N[C@@H](CC(C)C)C(=O)N[C@H](CCCNC(=N)N)C(=O)N[C@@H](CC(C)C)C(=O)N[C@@H](CC(C)C)C(=O)N[C@H](CCCNC(=N)N)C(=O)NCC(N)=O` [TP-5, FITC-XPLIYLrLLrG] ({X1-Ahx}-PL[aIle]YL[dR]LL[dR]G-NH2), for which, in data set [1] (5 μM FITC-peptide), the “cell uptake relative to TP peptides containing L-Arg (TP-1 and TP-2) (in words)” value is given as “enhanced uptake”; the “cell uptake relative to TP-2 (in words)” value was “further reduction in uptake”.

For `CC(C)C[C@H](NC(=O)[C@H](CC(C)C)NC(=O)[C@H](CCCNC(=N)N)NC(=O)[C@H](CCCNC(=N)N)NC(=O)[C@H](CC(C)C)NC(=O)[C@H](CC(C)C)NC(=O)[C@H](CCCNC(=N)N)NC(=O)CCCCCNC(=S)Nc1ccc(-c2c3ccc(=O)cc-3oc3cc(O)ccc23)c(C(=O)O)c1)C(=O)N[C@@H](CCCNC(=N)N)C(N)=O` [Pep-2, FITC-XRLLRRLLR] (HELM PEPTIDE1{[O=C(O)c1cc(NC(=S)[*:2])ccc1-c1c2ccc(=O)cc-2oc2cc(O)ccc12].[O=C(CCCCCN[*:1])[*:2]].R.L.L.R.R.L.L.R.[am]}$$$$V2.0), the “cytotoxicity relative to Pep-1 (in words)” value in data set [2] (at 100 M (so in the source)) is recorded as “displaying cytotoxicity”.

`N=C(N)NCCC[C@H](N)C(=O)O` [arginine]: in data set [4], the “Log D or c Log D” value was “approximately −3.5”.

As to `CC[C@H](C)[C@H](NC(=O)[C@H](CC(C)C)NC(=O)[C@H](Cc1ccccc1)NC(=O)[C@H](CCC(N)=O)NC(=O)[C@H](Cc1ccc(O)cc1)NC(=O)[C@H](CCCNC(=N)N)NC(=O)[C@H](CCCNC(=N)N)NC(=O)CCNC(=O)[C@H](CCCNC(=N)N)NC(=O)[C@H](CCCNC(=N)N)NC(=O)CCCCCNC(=O)[C@H](CCCNC(=N)N)NC(=O)CCCCCNC(=S)Nc1ccc(-c2c3ccc(=O)cc-3oc3cc(O)ccc23)c(C(=O)O)c1)C(=O)N[C@@H](CCCNC(=N)N)C(=O)NCCC(=O)N[C@@H](CCCNC(=N)N)C(=O)NCCCCCC(=O)N[C@@H](CCCNC(=N)N)C(N)=O` [PiP6, FITC-XRXRRBRRYQFLIRBRXR] ({X1-Ahx}-R[Ahx]RR[βAla]RRYQFLIR[βAla]R[Ahx]R-NH2), in data set [5] (30 μM FITC-peptide), the viability (usually a read-out of living cells in per cent, often relative to untreated cells) at 24 h, 30 µM worked out at 15%. For the same compound, in data set [5] (100 μM FITC-peptide), the viability at 24 h, 100 µM was 5%. The “time of maximum uptake” value in data set [1] (5 μM FITC-peptide) amounted to 1 h. Further, the “cellular distribution profile (in words)” value in data set [3] is on record as “high level of accumulation within the nucleus”.

Consider `CC[C@@H](C)[C@H](NC(=O)[C@H](CC(C)C)NC(=O)[C@@H]1CCCN1C(=O)CCCCCNC(=S)Nc1ccc(-c2c3ccc(=O)cc-3oc3cc(O)ccc23)c(C(=O)O)c1)C(=O)N[C@@H](Cc1ccc(O)cc1)C(=O)N[C@@H](CC(C)C)C(=O)N[C@H](CCCNC(N)=O)C(=O)N[C@@H](CC(C)C)C(=O)N[C@@H](CC(C)C)C(=O)N[C@H](CCCNC(N)=O)C(=O)NCC(N)=O` [TP-4, FITC-XPLIYLCitLLCitG] ({X1-Ahx}-PL[aIle]YL[dCit]LL[dCit]G-NH2), for which, in data set [1] (5 μM FITC-peptide), the “cell uptake relative to TP-2 (in words)” value is “reduction in cellular uptake”.

On to `CC[C@@H](C)[C@H](NC(=O)[C@H](CC(C)C)NC(=O)[C@@H]1CCCN1C(=O)CCCCCNC(=S)Nc1ccc(-c2c3ccc(=O)cc-3oc3cc(O)ccc23)c(C(=O)O)c1)C(=O)N[C@@H](Cc1ccc(O)cc1)C(=O)N[C@@H](CC(C)C)C(=O)N[C@@H](CNC(=O)c1ccc(C(=N)N)cc1)C(=O)N[C@@H](CC(C)C)C(=O)N[C@@H](CC(C)C)C(=O)N[C@@H](CNC(=O)c1ccc(C(=N)N)cc1)C(=O)NCC(N)=O` [Am-TP-2, FITC-XPLIYLAmLLAmG] ({X1-Ahx}-PL[aIle]YL[Dap](X2)LL[Dap](X2)G-NH2), for which, in data set [1], the “decrease in cellular uptake at 4° C. relative to 37° C.” value amounted to 30 fold and the “uptake at 4 hr incubation relative to 1 hr (in words)” value is listed as “enhanced uptake”. In addition, the “increase in uptake relative to TP-2” value in data set [1] (5 μM FITC-peptide) was 4 fold. For the same compound, the “uptake trend (in words)” value in data set [6] is listed as “enhanced uptake”. The “cellular distribution profile (in words)” value in data set [3] is on record as “cytoplasmic distribution profile”.
